Measured values from US12077503B2, “Substituted cyclic amides and their use as herbicides” (FMC CORPORATION, priority 2015, dated 2024).

Legend:
Format in all cases: in vivo
Kochia (Kochia scoparia) [1] = assay: Test A preemergence; details: Bassia scoparia, pre-emergence, 240 h
Procedure, shortened: (§1)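 Visual injury scores from 0, no effect, to 100, complete control, were assigned versus untreated controls roughly 10 d after treatment in the greenhouse. Test chemicals, formulated with surfactant in a non-phytotoxic solvent, were applied to planted seeds as a preemergence soil spray or postemergence to one- to two-leaf plants 2 to 10 cm tall, in loam–sand soil.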

[2] = test system: barnyardgrass (Echinochloa crus-galli); assay: Test A preemergence; details: Echinochloa crus-galli, pre-emergence, 240 h
Procedure, shortened: as §1

[3] = test system: giant foxtail (Setaria faberii); assay: Test A preemergence; details: Setaria faberi, pre-emergence, 240 h
Procedure, shortened: as §1

[4] = test system: pigweed (Amaranthus retroflexus); assay: Test A preemergence; details: Amaranthus retroflexus, pre-emergence, 240 h
[5] = test system: ragweed (common ragweed, Ambrosia elatior); assay: Test A preemergence; details: Ambrosia artemisiifolia, pre-emergence, 240 h
Procedure, shortened: as §1

[6] = test system: ryegrass, Italian (Italian ryegrass, Lolium multiflorum); assay: Test A preemergence; details: Lolium multiflorum, pre-emergence, 240 h
Procedure, shortened: as §1

[7] = test system: Galium (catchweed bedstraw, Galium aparine); assay: Test A postemergence; details: Galium, post-emergence, 240 h, read-out: Plant response rating, Galium
Procedure, shortened: as §1

Kochia (Kochia scoparia) [8] = assay: Test A postemergence; details: Bassia scoparia, post-emergence, 240 h, read-out: Plant response rating, Kochia
Procedure, shortened: as §1

[9] = test system: barnyardgrass (Echinochloa crus-galli); assay: Test A postemergence; details: Echinochloa crus-galli, post-emergence, 240 h, read-out: Plant response rating, Barnyardgrass
Procedure, shortened: as §1

[10] = test system: blackgrass (Alopecurus myosuroides); assay: Test A postemergence; details: Alopecurus myosuroides, post-emergence, 240 h, read-out: Plant response rating, Blackgrass
Procedure, shortened: as §1

corn (Zea mays) = assay: Test A postemergence; details: Zea mays, post-emergence, 240 h
Procedure, shortened: as §1

[11] = test system: giant foxtail (Setaria faberii); assay: Test A postemergence; details: Setaria faberi, post-emergence, 240 h, read-out: Plant response rating, Foxtail, Giant
Procedure, shortened: as §1

[12] = test system: pigweed (Amaranthus retroflexus); assay: Test A postemergence; details: Amaranthus retroflexus, post-emergence, 240 h, read-out: Plant response rating, Pigweed
Procedure, shortened: as §1

[13] = test system: ragweed (common ragweed, Ambrosia elatior); assay: Test A postemergence; details: Ambrosia artemisiifolia, post-emergence, 240 h, read-out: Plant response rating, Ragweed
Procedure, shortened: as §1

[14] = test system: ryegrass, Italian (Italian ryegrass, Lolium multiflorum); assay: Test A postemergence; details: Lolium multiflorum, post-emergence, 240 h, read-out: Plant response rating, Ryegrass, Italian
Procedure, shortened: as §1

[15] = test system: wheat (Triticum aestivum); assay: Test A postemergence; details: Triticum aestivum, post-emergence, 240 h, read-out: Plant response rating, Wheat
Procedure, shortened: as §1

[16] = test system: barnyardgrass (Echinochloa crus-galli); assay: Test B flooded paddy test; details: Echinochloa crus-galli, 250 g ai/ha, Flood; 0 to 100 scale where 0 is no effect and 100 is complete control; read-out: Barnyardgrass plant response rating
Procedure, shortened: (§2)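 Percent control, visually estimated after 13–15 d in the greenhouse on a 0–100 basis, compares treated pots with untreated ones; compound was put into paddy water 3 cm above the soil when plants had two leaves.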

[17] = test system: ducksalad (Heteranthera limosa); assay: Test B flooded paddy test; details: Heteranthera limosa, 250 g ai/ha, Flood; 0 to 100 scale where 0 is no effect and 100 is complete control; read-out: Ducksalad plant response rating
Procedure, shortened: as §2

rice (Oryra sativa) = assay: Test B flooded paddy test; details: Oryza sativa, 250 g ai/ha, Flood; 0 to 100 scale where 0 is no effect and 100 is complete control; read-out: Rice plant response rating
Procedure, shortened: as §2

[18] = test system: sedge, umbrella (small-flower umbrella sedge, Cyperus difformis); assay: Test B flooded paddy test; details: Cyperus difformis, 250 g ai/ha, Flood; 0 to 100 scale where 0 is no effect and 100 is complete control; read-out: Sedge, Umbrella plant response rating
Procedure, shortened: as §2

[19] = 125 g ai/ha, Postemergence, visual injury after approximately 10 d, 0 to 100 scale where 0 is no effect and 100 is complete control
[20] = 500 g ai/ha, postemergence, visual injury, 0 to 100 scale (0 no effect, 100 complete control), approx. 10 d

In the case of `COc1ccc([C@H]2CN(C)C(=O)[C@@H]2C(=O)Nc2ccccc2F)cc1F` [Compound 1020], the pest or weed control at 125 g/ha (Kochia (Kochia scoparia) [1]; 125 g ai/ha, Preemergence, visual injury rating after approximately 10 d, read-out: Kochia plant response rating (0 to 100 scale, 0 is no effect, 100 is complete control)) is reported as 30%, the pest or weed control at 500 g/ha (Kochia (Kochia scoparia) [1]; 500 g ai/ha, preemergence, visual injury rating about 10 d after treatment, 0 to 100 scale (0 no effect, 100 complete control), read-out: Kochia plant response rating) is reported as 20% and the pest or weed control at 125 g/ha ([2]; 125 g ai/ha, Preemergence, visual injury rating after approximately 10 d, read-out: Barnyardgrass plant response rating (0 to 100 scale, 0 is no effect, 100 is complete control)) is reported as 90%. It also gave a pest or weed control at 500 g/ha ([2]; 500 g ai/ha, preemergence, visual injury rating about 10 d after treatment, 0 to 100 scale (0 no effect, 100 complete control), read-out: Barnyardgrass plant response rating) of 90%, a pest or weed control at 125 g/ha ([3]; 125 g ai/ha, Preemergence, visual injury rating after approximately 10 d, read-out: Foxtail, Giant plant response rating (0 to 100 scale, 0 is no effect, 100 is complete control)) of 90% and a pest or weed control at 500 g/ha ([3]; 500 g ai/ha, preemergence, visual injury rating about 10 d after treatment, 0 to 100 scale (0 no effect, 100 complete control), read-out: Foxtail, Giant plant response rating) of 90%. For the same compound, the pest or weed control at 125 g/ha ([4]; 125 g ai/ha, Preemergence, visual injury rating after approximately 10 d, read-out: Pigweed plant response rating (0 to 100 scale, 0 is no effect, 100 is complete control)) was 30%, the pest or weed control at 500 g/ha ([4]; 500 g ai/ha, preemergence, visual injury rating about 10 d after treatment, 0 to 100 scale (0 no effect, 100 complete control), read-out: Pigweed plant response rating) was 40% and the pest or weed control at 125 g/ha ([5]; 125 g ai/ha, Preemergence, visual injury rating after approximately 10 d, read-out: Ragweed plant response rating (0 to 100 scale, 0 is no effect, 100 is complete control)) was 0%. For the same compound, the pest or weed control at 500 g/ha ([5]; 500 g ai/ha, preemergence, visual injury rating about 10 d after treatment, 0 to 100 scale (0 no effect, 100 complete control), read-out: Ragweed plant response rating) was 20%, the pest or weed control at 125 g/ha ([6]; 125 g ai/ha, Preemergence, visual injury rating after approximately 10 d, read-out: Ryegrass, Italian plant response rating (0 to 100 scale, 0 is no effect, 100 is complete control)) was 0% and the pest or weed control at 500 g/ha ([6]; 500 g ai/ha, preemergence, visual injury rating about 10 d after treatment, 0 to 100 scale (0 no effect, 100 complete control), read-out: Ryegrass, Italian plant response rating) was 30%. The pest or weed control at 125 g/ha [7, 19] was 40%, the pest or weed control at 500 g/ha [7, 20] was 60% and the pest or weed control at 125 g/ha (Kochia (Kochia scoparia) [8]; [19]) was 50%. For the same compound, the pest or weed control at 500 g/ha (Kochia (Kochia scoparia) [8]; [20]) was 50%, the pest or weed control at 125 g/ha [9, 19] was 90% and the pest or weed control at 500 g/ha [9, 20] was 90%. For the same compound, the pest or weed control at 125 g/ha [10, 19] was 0%, the pest or weed control at 500 g/ha [10, 20] was 20% and the Corn plant response rating (crop injury, 0 = no effect, 100 = complete kill) at 125 g/ha (corn (Zea mays); [19]) was 0%. For the same compound, the Corn plant response rating (crop injury, 0 = no effect, 100 = complete kill) at 500 g/ha (corn (Zea mays); [20]) was 30%, the pest or weed control at 125 g/ha [11, 19] was 90% and the pest or weed control at 500 g/ha [11, 20] was 90%. The pest or weed control at 125 g/ha [12, 19] was 30%, the pest or weed control at 500 g/ha [12, 20] was 30% and the pest or weed control at 125 g/ha [13, 19] was 0%. For the same compound, the pest or weed control at 500 g/ha [13, 20] was 0%, the pest or weed control at 125 g/ha [14, 19] was 30% and the pest or weed control at 500 g/ha [14, 20] was 30%. It also gave a plant injury at 125 g/ha [15, 19] of 0%, a plant injury at 500 g/ha [15, 20] of 30% and a pest or weed control at 250 g/ha [16] of 75%. It also gave a pest or weed control at 250 g/ha [17] of 90%, a pest or weed control at 250 g/ha (rice (Oryra sativa)) of 20% and a pest or weed control at 250 g/ha [18] of 0%.
